In ChEMBL document CHEMBL4325853, “Design, synthesis and antibacterial evaluation of 2,4-disubstituted-6-thiophenyl-pyrimidines” (Eur J Med Chem, 2019):
≈ marks a conversion by molar mass, not a printed value.

How the values were obtained:
Format in all cases: functional
Bacillus subtilis = test: Antibacterial activity against Bacillus subtilis 168 after 18 hrs by broth microdilution method; details: subsp. subtilis str. 168, 18 h
Enterococcus faecalis [1] = test: Antibacterial activity against Enterococcus faecalis ATCC 29212 after 18 hrs by broth microdilution method; details: ATCC 29212, 18 h
[2] = tested on: Staphylococcus epidermidis; test: Antibacterial activity against Staphylococcus epidermidis ATCC 12228 after 18 hrs by broth microdilution method; details: ATCC 12228, 18 h
Staphylococcus aureus [3] = test: Antibacterial activity against methicillin-resistant Staphylococcus aureus ATCC BAA41 after 18 hrs by broth microdilution method; details: ATCC BAA41, 18 h
Staphylococcus aureus [4] = test: Antibacterial activity against methicillin-resistant Staphylococcus aureus ATCC BAA1720 after 18 hrs by broth microdilution method; details: ATCC BAA1720, 18 h
Staphylococcus aureus [5] = test: Antibacterial activity against methicillin-resistant Staphylococcus aureus ATCC 33592 after 18 hrs by broth microdilution method; details: ATCC 33592, 18 h
Staphylococcus aureus [6] = test: Antibacterial activity against methicillin-resistant Staphylococcus aureus ATCC 43300 after 18 hrs by broth microdilution method; details: ATCC 43300, 18 h
Enterococcus faecalis [7] = test: Antibacterial activity against vancomycin-resistant Enterococcus faecalis ATCC 700221 after 18 hrs by broth microdilution method; details: ATCC 700221, 18 h
Staphylococcus aureus [8] = test: Antibacterial activity against methicillin-resistant Staphylococcus aureus isolate 3170 after 18 hrs by broth microdilution method; details: isolate 3170, 18 h
Staphylococcus aureus [9] = test: Antibacterial activity against methicillin-resistant Staphylococcus aureus isolate 3096 after 18 hrs by broth microdilution method; details: isolate 3096, 18 h
Staphylococcus aureus [10] = test: Antibacterial activity against methicillin-resistant Staphylococcus aureus isolate 2491 after 18 hrs by broth microdilution method; details: isolate 2491, 18 h
Staphylococcus aureus [11] = test: Antibacterial activity against methicillin-resistant Staphylococcus aureus isolate 7863 after 18 hrs by broth microdilution method; details: isolate 7863, 18 h
Staphylococcus aureus [12] = test: Antibacterial activity against methicillin-resistant Staphylococcus aureus isolate 7947 after 18 hrs by broth microdilution method; details: isolate 7947, 18 h
Staphylococcus aureus [13] = test: Antibacterial activity against methicillin-resistant Staphylococcus aureus isolate 1610 after 18 hrs by broth microdilution method; details: isolate 1610, 18 h
Staphylococcus aureus [14] = test: Antibacterial activity against methicillin-resistant Staphylococcus aureus isolate 6334 after 18 hrs by broth microdilution method; details: isolate 6334, 18 h
Staphylococcus aureus [15] = test: Antibacterial activity against methicillin-resistant Staphylococcus aureus isolate 7972 after 18 hrs by broth microdilution method; details: isolate 7972, 18 h
Staphylococcus aureus [16] = test: Antibacterial activity against methicillin-resistant Staphylococcus aureus isolate 1220 after 18 hrs by broth microdilution method; details: isolate 1220, 18 h
Staphylococcus aureus [17] = test: Antibacterial activity against methicillin-resistant Staphylococcus aureus isolate 6515 after 18 hrs by broth microdilution method; details: isolate 6515, 18 h
Staphylococcus aureus [18] = test: Antibacterial activity against methicillin-resistant Staphylococcus aureus isolate 1651 after 18 hrs by broth microdilution method; details: isolate 1651, 18 h
Staphylococcus aureus [19] = test: Antibacterial activity against methicillin-resistant Staphylococcus aureus isolate 8179 after 18 hrs by broth microdilution method; details: isolate 8179, 18 h
Staphylococcus aureus [20] = test: Antibacterial activity against methicillin-resistant Staphylococcus aureus isolate 8071 after 18 hrs by broth microdilution method; details: isolate 8071, 18 h
Staphylococcus aureus [21] = test: Antibacterial activity against methicillin-resistant Staphylococcus aureus isolate 4955 after 18 hrs by broth microdilution method; details: isolate 4955, 18 h
Staphylococcus aureus [22] = test: Antibacterial activity against methicillin-resistant Staphylococcus aureus isolate 5395 after 18 hrs by broth microdilution method; details: isolate 5395, 18 h
Staphylococcus aureus [23] = test: Antibacterial activity against methicillin-resistant Staphylococcus aureus isolate 7844 after 18 hrs by broth microdilution method; details: isolate 7844, 18 h
Staphylococcus aureus [24] = test: Antibacterial activity against methicillin-resistant Staphylococcus aureus isolate 7916 after 18 hrs by broth microdilution method; details: isolate 7916, 18 h
Staphylococcus aureus [25] = test: Antibacterial activity against methicillin-resistant Staphylococcus aureus isolate 7682 after 18 hrs by broth microdilution method; details: isolate 7682, 18 h
Staphylococcus aureus [26] = test: Antibacterial activity against methicillin-resistant Staphylococcus aureus isolate 7536 after 18 hrs by broth microdilution method; details: isolate 7536, 18 h
Staphylococcus aureus [27] = test: Antibacterial activity against methicillin-resistant Staphylococcus aureus isolate 1708 after 18 hrs by broth microdilution method; details: isolate 1708, 18 h
Staphylococcus aureus [28] = test: Antibacterial activity against methicillin-resistant Staphylococcus aureus isolate 5056 after 18 hrs by broth microdilution method; details: isolate 5056, 18 h
Staphylococcus aureus [29] = test: Antibacterial activity against methicillin-resistant Staphylococcus aureus isolate 7434 after 18 hrs by broth microdilution method; details: isolate 7434, 18 h
Staphylococcus aureus [30] = test: Potency index, ratio of berberine MIC to test compound MIC for Staphylococcus aureus ATCC 29213
Enterococcus faecium = test: Potency index, ratio of berberine MIC to test compound MIC for Enterococcus faecium ATCC 49624
Staphylococcus aureus [31] = test: Potency index, ratio of methicillin MIC to test compound MIC for methicillin-resistant Staphylococcus aureus ATCC BAA41
Staphylococcus aureus [32] = test: Potency index, ratio of methicillin MIC to test compound MIC for methicillin-resistant Staphylococcus aureus ATCC BAA1720
Staphylococcus aureus [33] = test: Potency index, ratio of methicillin MIC to test compound MIC for methicillin-resistant Staphylococcus aureus ATCC 33591
Staphylococcus aureus [34] = test: Bactericidal activity against methicillin-resistant Staphylococcus aureus ATCC 43300 after 18 hrs by broth microdilution method; details: ATCC 43300, 18 h
Enterococcus faecalis [35] = test: Bactericidal activity against vancomycin-resistant Enterococcus faecalis ATCC 700221 after 18 hrs by broth microdilution method; details: ATCC 700221, 18 h
Staphylococcus aureus [36] = test: Ratio of MBC to MIC for methicillin-resistant Staphylococcus aureus ATCC 43300

Work on COc1cccc(OC)c1C(=O)N[C@@H]1C(=O)N2[C@@H]1SC(C)(C)[C@@H]2C(=O)O [METHICILLIN] yielded an MIC90 (Bacillus subtilis) of 0.5 µg/mL (≈ 1.31 µM), an MIC90 (Enterococcus faecalis [1]) of 6 µg/mL (≈ 15.8 µM) and an MIC90 [2] of 0.5 µg/mL (≈ 1.31 µM). For the same compound, the MIC90 (Staphylococcus aureus [3]) was over 192 µg/mL, the MIC90 (Staphylococcus aureus [4]) was over 192 µg/mL and the MIC90 (Staphylococcus aureus [5]) was over 192 µg/mL. The MIC90 (Staphylococcus aureus [6]) was over 192 µg/mL, the MIC90 (Enterococcus faecalis [7]) was 6 µg/mL (≈ 15.8 µM) and the MIC90 (Staphylococcus aureus [8]) was over 64 µg/mL. The MIC90 (Staphylococcus aureus [9]) was over 64 µg/mL, the MIC90 (Staphylococcus aureus [10]) was over 64 µg/mL and the MIC90 (Staphylococcus aureus [11]) was over 64 µg/mL. The MIC90 (Staphylococcus aureus [12]) was over 64 µg/mL, the MIC90 (Staphylococcus aureus [13]) was over 64 µg/mL and the MIC90 (Staphylococcus aureus [14]) was over 64 µg/mL. For the same compound, the MIC90 (Staphylococcus aureus [15]) was over 64 µg/mL, the MIC90 (Staphylococcus aureus [16]) was over 64 µg/mL and the MIC90 (Staphylococcus aureus [17]) was over 64 µg/mL. For the same compound, the MIC90 (Staphylococcus aureus [18]) was over 64 µg/mL, the MIC90 (Staphylococcus aureus [19]) was over 64 µg/mL and the MIC90 (Staphylococcus aureus [20]) was over 64 µg/mL. For the same compound, the MIC90 (Staphylococcus aureus [21]) was over 64 µg/mL, the MIC90 (Staphylococcus aureus [22]) was over 64 µg/mL and the MIC90 (Staphylococcus aureus [23]) was over 64 µg/mL. It also gave an MIC90 (Staphylococcus aureus [24]) of over 64 µg/mL, an MIC90 (Staphylococcus aureus [25]) of over 64 µg/mL and an MIC90 (Staphylococcus aureus [26]) of over 64 µg/mL. The MIC90 (Staphylococcus aureus [27]) was over 64 µg/mL, the MIC90 (Staphylococcus aureus [28]) was over 64 µg/mL and the MIC90 (Staphylococcus aureus [29]) was over 64 µg/mL.
With FC(F)(F)c1ccc(CN2CCCN(CCc3cc(-c4cccs4)nc(-c4ccncc4)n3)CC2)cc1 the MIC90 (Bacillus subtilis) was 4 µg/mL (≈ 7.64 µM), the MIC90 (Enterococcus faecalis [1]) was 4 µg/mL (≈ 7.64 µM) and the MIC90 [2] was 4 µg/mL (≈ 7.64 µM). For the same compound, the Ratio (Staphylococcus aureus [30]) was 50 - 100, the Ratio (Enterococcus faecium) was 50 - 100 and the MIC90 (Staphylococcus aureus [3]) was 4 µg/mL (≈ 7.64 µM). It also gave an MIC90 (Staphylococcus aureus [4]) of 4 µg/mL (≈ 7.64 µM), an MIC90 (Staphylococcus aureus [5]) of 4 µg/mL (≈ 7.64 µM) and an MIC90 (Staphylococcus aureus [6]) of 4 µg/mL (≈ 7.64 µM). It also gave an MIC90 (Enterococcus faecalis [7]) of 4 µg/mL (≈ 7.64 µM), a Ratio (Staphylococcus aureus [31]) of over 100 and a Ratio (Staphylococcus aureus [32]) of over 100. The Ratio (Staphylococcus aureus [33]) was over 100, the MIC90 (Staphylococcus aureus [8]) was 8 µg/mL (≈ 15.3 µM) and the MIC90 (Staphylococcus aureus [9]) was 4 µg/mL (≈ 7.64 µM). For the same compound, the MIC90 (Staphylococcus aureus [10]) was 8 µg/mL (≈ 15.3 µM), the MIC90 (Staphylococcus aureus [11]) was 4 µg/mL (≈ 7.64 µM) and the MIC90 (Staphylococcus aureus [12]) was 4 µg/mL (≈ 7.64 µM). It also gave an MIC90 (Staphylococcus aureus [13]) of 8 µg/mL (≈ 15.3 µM), an MIC90 (Staphylococcus aureus [14]) of 4 µg/mL (≈ 7.64 µM) and an MIC90 (Staphylococcus aureus [15]) of 4 µg/mL (≈ 7.64 µM). The MIC90 (Staphylococcus aureus [16]) was 4 µg/mL (≈ 7.64 µM), the MIC90 (Staphylococcus aureus [17]) was 4 µg/mL (≈ 7.64 µM) and the MIC90 (Staphylococcus aureus [18]) was 8 µg/mL (≈ 15.3 µM). For the same compound, the MIC90 (Staphylococcus aureus [19]) was 4 µg/mL (≈ 7.64 µM), the MIC90 (Staphylococcus aureus [20]) was 4 µg/mL (≈ 7.64 µM) and the MIC90 (Staphylococcus aureus [21]) was 4 µg/mL (≈ 7.64 µM). It also gave an MIC90 (Staphylococcus aureus [22]) of 4 µg/mL (≈ 7.64 µM), an MIC90 (Staphylococcus aureus [23]) of 4 µg/mL (≈ 7.64 µM) and an MIC90 (Staphylococcus aureus [24]) of 4 µg/mL (≈ 7.64 µM). It also gave an MIC90 (Staphylococcus aureus [25]) of 8 µg/mL (≈ 15.3 µM), an MIC90 (Staphylococcus aureus [26]) of 4 µg/mL (≈ 7.64 µM) and an MIC90 (Staphylococcus aureus [27]) of 8 µg/mL (≈ 15.3 µM). It also gave an MIC90 (Staphylococcus aureus [28]) of 4 µg/mL (≈ 7.64 µM), an MIC90 (Staphylococcus aureus [29]) of 8 µg/mL (≈ 15.3 µM) and an MBC (Staphylococcus aureus [34]) of 8 µg/mL (≈ 15.3 µM). For the same compound, the MBC (Enterococcus faecalis [35]) was 8 µg/mL (≈ 15.3 µM) and the Ratio (Staphylococcus aureus [36]) was 2.
